# Measured values as given in ChEMBL document CHEMBL2074335, “Cloning and functional characterization of the multidrug resistance-associated protein (MRP1/ABCC1) from the cynomolgus monkey” (Mol Cancer Ther, 2003).
# Molecular target: Multidrug resistance-associated protein 1 (Homo sapiens, UniProt P33527)
# Test: TP_TRANSPORTER: drug resistance in MRP1-expressing PEAKSTABEL cells
# Assay type: functional, cell-based
# Conditions: peakstable
# Chain of Multidrug resistance-associated protein 1 (P33527 whole entry): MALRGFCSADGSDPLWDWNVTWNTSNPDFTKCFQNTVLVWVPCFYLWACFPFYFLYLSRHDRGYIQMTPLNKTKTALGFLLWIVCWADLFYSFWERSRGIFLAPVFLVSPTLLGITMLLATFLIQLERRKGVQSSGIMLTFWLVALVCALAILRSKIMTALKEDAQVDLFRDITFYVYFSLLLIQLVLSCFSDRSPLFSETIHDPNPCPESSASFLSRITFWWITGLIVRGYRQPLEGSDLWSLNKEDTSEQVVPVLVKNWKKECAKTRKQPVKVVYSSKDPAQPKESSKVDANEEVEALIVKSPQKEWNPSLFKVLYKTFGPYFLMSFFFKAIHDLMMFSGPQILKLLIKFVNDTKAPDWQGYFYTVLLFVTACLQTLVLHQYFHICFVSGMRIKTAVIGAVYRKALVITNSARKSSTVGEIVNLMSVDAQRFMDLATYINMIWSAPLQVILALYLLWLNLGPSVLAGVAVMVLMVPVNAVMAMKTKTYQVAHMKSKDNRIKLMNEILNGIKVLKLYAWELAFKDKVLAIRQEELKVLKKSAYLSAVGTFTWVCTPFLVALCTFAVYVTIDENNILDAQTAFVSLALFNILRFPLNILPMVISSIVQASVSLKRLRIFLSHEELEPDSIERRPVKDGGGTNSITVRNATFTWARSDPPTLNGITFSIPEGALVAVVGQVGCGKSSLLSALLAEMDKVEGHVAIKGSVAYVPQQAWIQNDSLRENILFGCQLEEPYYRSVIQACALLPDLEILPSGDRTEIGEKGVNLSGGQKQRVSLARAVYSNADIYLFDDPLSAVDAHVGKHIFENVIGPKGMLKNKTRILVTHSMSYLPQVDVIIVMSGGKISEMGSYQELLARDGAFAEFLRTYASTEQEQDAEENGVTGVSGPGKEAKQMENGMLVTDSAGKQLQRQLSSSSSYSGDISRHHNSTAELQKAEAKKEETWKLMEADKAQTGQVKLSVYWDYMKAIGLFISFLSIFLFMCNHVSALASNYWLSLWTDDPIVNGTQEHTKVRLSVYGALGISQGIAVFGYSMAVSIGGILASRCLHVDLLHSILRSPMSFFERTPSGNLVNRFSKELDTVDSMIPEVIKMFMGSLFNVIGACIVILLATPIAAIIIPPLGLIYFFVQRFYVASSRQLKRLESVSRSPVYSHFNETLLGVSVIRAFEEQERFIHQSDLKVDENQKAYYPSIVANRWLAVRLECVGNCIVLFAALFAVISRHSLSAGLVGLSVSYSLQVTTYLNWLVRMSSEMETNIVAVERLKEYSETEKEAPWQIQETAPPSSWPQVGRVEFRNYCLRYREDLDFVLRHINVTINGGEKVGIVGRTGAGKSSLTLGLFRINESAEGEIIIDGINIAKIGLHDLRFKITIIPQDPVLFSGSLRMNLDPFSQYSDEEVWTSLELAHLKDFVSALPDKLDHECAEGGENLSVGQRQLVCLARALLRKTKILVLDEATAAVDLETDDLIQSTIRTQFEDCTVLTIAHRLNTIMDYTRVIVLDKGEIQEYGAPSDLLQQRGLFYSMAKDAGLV
row,SMILES,Activity
1,CC[C@]1(O)C[C@H]2CN(CCc3c([nH]c4ccccc34)[C@@](C(=O)OC)(c3cc4c(cc3OC)N(C=O)[C@H]3[C@@](O)(C(=O)OC)[C@H](OC(C)=O)[C@]5(CC)C=CCN6CC[C@]43[C@@H]65)C2)C1 [VINCRISTINE],substrate []
2,COc1cc(NC(=O)Cc2cccc(-n3c(=O)c4c(C)onc4c4c(Cl)cccc43)c2)cc(OC)c1OC,inhibitor []

# Second part, the molecule after the results:
row,Activity,SMILES
1,substrate [],COc1cccc2c1C(=O)c1c(O)c3c(c(O)c1C2=O)C[C@@](O)(C(=O)CO)C[C@@H]3O[C@H]1C[C@H](N)[C@@H](O)[C@H](C)O1 [EPIRUBICIN]
2,substrate [],COc1cccc2c1C(=O)c1c(O)c3c(c(O)c1C2=O)C[C@@](O)(C(=O)CO)C[C@@H]3O[C@H]1C[C@H](N)[C@H](O)[C@H](C)O1 [DOXORUBICIN]
3,substrate [],COc1cc([C@@H]2c3cc4c(cc3[C@@H](O[C@@H]3O[C@@H]5CO[C@@H](C)O[C@H]5[C@H](O)[C@H]3O)[C@H]3COC(=O)[C@H]23)OCO4)cc(OC)c1O [ETOPOSIDE]
